This assay has as its target human phosphoinositide-3 kinase (PI3K) delta (Homo sapiens (Human), UniProt O00329). As to the kind of experiment: PI3K-mediated Akt 1/2 (S473) phosphorylation in Rat-1 cells overexpressing PI3K delta. In kind it is cell-based. To be noted: cellular assay, p-AKT(Ser473), read-out: Cell PI3K delta IC50. The method, then: 2.1 Phosphoinositide-3 kinase (PI3K)-Mediated Akt 1/2 (S473) Phosphorylation in Rat-1 Cells
Rat-1 cells stably overexpressing a myristoylated form of the catalytic subunit of human phosphoinositide-3 kinase (PI3K) alpha, beta or delta were plated in 384-well plates at a density of 7500 (PI3K alpha), 6200 (PI3K beta), or 4000 (PI3K delta) cells in 30 ul complete growth medium (Dulbecco's modified Eagle's medium (DMEM high glucose) supplemented with 10% (v/v) fetal bovine serum, 1% (v/v) MEM non essential amino acids, 10 mM HEPES, 2 mM L-glutamine, 10 μg/mL puromycin and 1% (v/v) Penicillin/Streptomycin) and were incubated at […]/5% CO2/95% humidity for 24 h. Compounds were diluted in 384-well compound plates (compound master plates), to obtain 8-point serial dilutions for 40 test compounds in 90% DMSO, as well as 4 reference compounds plus 16 high controls and 16 low (inhibited) controls. Predilution plates were prepared by dispensing pipetting 250 nl of compound solutions into 384-well polypropylen plates (daugther plates), using a Hummingwell nanoliter dispenser. Compounds were prediluted by the addition of 49.75 ul complete growth medium. 10 ul of prediluted compound solution were transferred to the cell plate using a 384-well pipettor, resulting in a final DMSO concentration of 0.11%. Cells were incubated for 1 h at […]/5% CO2/95% humidity. The supernatant was removed, the cells were lysed in 20 ul of lysis buffer for AlphaScreen® SureFire® detection.
For detection of p-AKT(Ser473), the SureFire® p-Akt 1/2 (Ser473) Assay Kit (PerkinElmer, U.S.A.) was used. 5 ul of cell lysate was transferred to 384-well low volume Proxiplates for detection using a 384-well pipettor. Addition of AlphaScreen® SureFire® reagents was done according to the manufacturer's protocol. First, 5 ul of reaction buffer plus activation buffer mix containing AlphaScreen® acceptor beads was added, the plate was sealed, and incubated on a plate shaker for 2 hours at room temperature. Second, 2 ul of dilution buffer containing AlphaScreen® donor beads was added, and the plate was incubated on plate shaker as above for a further 2 hours. The plate was read on an AlphaScreen® compatible plate reader, using standard AlphaScreen® settings. Alternatively, p-AKT(Ser473) was detected with the CisBio HTRF Assay Kit: As positive control, 0.9 mM of 1-(3-(trifluoromethyl)-4-(piperazin-1-yl)phenyl)-8-(6-methoxypyridin-3-yl)-3-methyl-1H-imidazo[4,5-c]quinolin-2(3H)-one maleic acid salt in 90% (v/v) DMSO was added to the compound master plate. For compound testing, the cells were seeded at a density of 4000 (Rat-1_PI3Kdelta), 8000 (Rat-1_PI3Kalpha), or 6500 (Rat-1_PI3Kbeta) cells in 30 ul complete growth medium into 384-well plates, with a plastic surface promoting the adhesion of cells and their growth (assay plates) and were grown at 37° C./5% CO2/90% humidity for 24 h. Some 10 ul of the compound predilutions from the daughter plate were then transferred to the cells. After treatment with compound for 1 h, medium was removed and cells were lysed by the addition of 20 ul lysis buffer supplemented with blocking buffer. Detection of p-AKT(Ser473) was performed with the HTRF pAKT (Ser473) assay kit according to the manufacturer's instructions using 16 ul of cell lysate in a total detection volume of 20 ul.
Sequence of human phosphoinositide-3 kinase (PI3K) delta (O00329 whole entry): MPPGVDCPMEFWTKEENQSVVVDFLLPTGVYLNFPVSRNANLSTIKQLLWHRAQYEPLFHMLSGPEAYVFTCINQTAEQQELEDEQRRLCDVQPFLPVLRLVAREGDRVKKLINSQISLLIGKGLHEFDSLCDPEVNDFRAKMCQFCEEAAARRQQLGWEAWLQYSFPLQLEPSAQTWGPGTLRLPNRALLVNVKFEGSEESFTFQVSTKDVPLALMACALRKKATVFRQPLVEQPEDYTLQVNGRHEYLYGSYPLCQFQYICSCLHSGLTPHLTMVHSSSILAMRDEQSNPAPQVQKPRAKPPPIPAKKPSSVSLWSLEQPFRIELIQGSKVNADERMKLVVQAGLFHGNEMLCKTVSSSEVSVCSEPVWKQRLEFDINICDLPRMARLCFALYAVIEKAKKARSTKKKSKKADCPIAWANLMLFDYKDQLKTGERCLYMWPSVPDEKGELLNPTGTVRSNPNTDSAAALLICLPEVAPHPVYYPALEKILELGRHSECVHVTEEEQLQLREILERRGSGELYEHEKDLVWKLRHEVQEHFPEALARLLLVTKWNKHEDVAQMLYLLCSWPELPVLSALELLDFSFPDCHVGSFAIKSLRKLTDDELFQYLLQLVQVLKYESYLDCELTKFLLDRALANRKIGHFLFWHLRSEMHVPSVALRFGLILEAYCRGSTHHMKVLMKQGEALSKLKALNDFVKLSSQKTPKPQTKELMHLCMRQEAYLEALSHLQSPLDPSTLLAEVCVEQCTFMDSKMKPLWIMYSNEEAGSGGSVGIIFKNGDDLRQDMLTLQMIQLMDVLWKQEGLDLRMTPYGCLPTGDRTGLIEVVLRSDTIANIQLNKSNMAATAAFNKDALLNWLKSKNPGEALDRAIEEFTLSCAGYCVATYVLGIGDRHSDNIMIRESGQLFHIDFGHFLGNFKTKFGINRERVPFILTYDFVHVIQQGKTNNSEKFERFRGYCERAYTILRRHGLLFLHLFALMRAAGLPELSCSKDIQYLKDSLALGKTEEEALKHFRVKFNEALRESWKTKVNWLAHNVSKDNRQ
Sequence of human phosphoinositide-3 kinase (PI3K) delta (Q63787 whole entry partner): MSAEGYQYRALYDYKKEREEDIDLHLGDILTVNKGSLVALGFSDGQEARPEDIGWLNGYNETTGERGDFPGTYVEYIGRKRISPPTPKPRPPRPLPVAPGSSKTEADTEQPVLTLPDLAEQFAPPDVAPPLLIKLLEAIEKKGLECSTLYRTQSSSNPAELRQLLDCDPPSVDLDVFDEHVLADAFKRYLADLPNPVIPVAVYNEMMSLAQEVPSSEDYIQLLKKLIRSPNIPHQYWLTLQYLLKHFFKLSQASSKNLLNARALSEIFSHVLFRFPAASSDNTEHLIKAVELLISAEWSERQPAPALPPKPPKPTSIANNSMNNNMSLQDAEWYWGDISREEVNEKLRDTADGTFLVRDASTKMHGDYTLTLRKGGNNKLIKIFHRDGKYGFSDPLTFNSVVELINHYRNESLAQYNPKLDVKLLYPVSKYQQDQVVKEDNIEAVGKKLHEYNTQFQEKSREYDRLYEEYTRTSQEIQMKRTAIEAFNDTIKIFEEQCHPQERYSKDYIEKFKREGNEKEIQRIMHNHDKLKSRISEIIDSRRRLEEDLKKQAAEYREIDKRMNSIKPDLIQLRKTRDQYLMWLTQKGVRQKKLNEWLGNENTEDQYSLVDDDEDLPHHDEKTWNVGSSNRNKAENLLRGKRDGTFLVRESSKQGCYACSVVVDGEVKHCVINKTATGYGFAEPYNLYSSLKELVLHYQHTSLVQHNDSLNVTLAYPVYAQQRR
`Cc1nc(N)nc(N2C[C@@H](O)C[C@H]2c2nc3cccc(-c4cccnc4)c3c(=O)n2-c2ccccc2)c1C#N` [Example 24, 2-Amino-4-((2S,4S)-4-hydroxy-2-(4-oxo-3-phenyl-5-(pyridin-3-yl)-3,4-dihydroquinazolin-2-yl)pyrrolidin-1-yl)-6-methylpyrimidine-5-carbonitrile]: the IC50 was less than 3 nM. Consider `COc1ncc(-c2c(F)ccc3nc([C@@H]4C[C@H](O)CN4c4nc(N)nc(C)c4C#N)n(-c4ccccc4)c(=O)c23)s1` [Example 9, 2-Amino-4-((2S,4S)-2-(6-fluoro-5-(2-methoxythiazol-5-yl)-4-oxo-3-phenyl-3,4-dihydroquinazolin-2-yl)-4-hydroxypyrrolidin-1-yl)-6-methylpyrimidine-5-carbonitrile], for which the IC50 is less than 3 nM. As for `COc1ncc(-c2cccc3nc([C@@H]4CCCN4c4ncnc(N)c4C#N)n(-c4ccccc4)c(=O)c23)cn1` [Example 3, (S)-4-Amino-6-(2-(5-(2-methoxypyrimidin-5-yl)-4-oxo-3-phenyl-3,4-dihydroquinazolin-2-yl)pyrrolidin-1-yl)pyrimidine-5-carbonitrile], the figure is 11 nM. `CO[C@H]1C[C@@H](c2nc3cccc(-c4cnn(C)c4)c3c(=O)n2-c2ccccc2)N(c2nc(N)nc3[nH]cnc23)C1` [Example 11, 2-((2S,4S)-1-(2-Amino-9H-purin-6-yl)-4-methoxypyrrolidin-2-yl)-5-(1-methyl-1H-pyrazol-4-yl)-3-phenylquinazolin-4(3H)-one]: the IC50 turned out to be 660 nM. Take `Cc1nc(N)nc(N2C[C@@H](O)C[C@H]2c2nc3cccc(-c4cnn(C)c4)c3c(=O)n2-c2ccccc2)c1C#N` [Example 16, 2-Amino-4-((2S,4S)-4-hydroxy-2-(5-(1-methyl-1H-pyrazol-4-yl)-4-oxo-3-phenyl-3,4-dihydroquinazolin-2-yl)pyrrolidin-1-yl)-6-methylpyrimidine-5-carbonitrile]: the IC50 came out at 8 nM. For the compound `CCOc1ncc(-c2c(F)ccc3nc([C@@H]4C[C@H](O)CN4c4nc(N)nc(C)c4C#N)n(-c4ccccc4)c(=O)c23)cn1` [Example 29, 2-Amino-4-((2S,4S)-2-(5-(2-ethoxypyrimidin-5-yl)-6-fluoro-4-oxo-3-phenyl-3,4-dihydroquinazolin-2-yl)-4-hydroxypyrrolidin-1-yl)-6-methylpyrimidine-5-carbonitrile], the IC50 worked out at 6 nM. In the case of `Cn1cnc(-c2cccc3nc([C@@H]4CCCN4c4ncnc(N)c4C#N)n(-c4ccccc4)c(=O)c23)c1` [Example 15, (S)-4-Amino-6-(2-(5-(1-methyl-1H-imidazol-4-yl)-4-oxo-3-phenyl-3,4-dihydroquinazolin-2-yl)pyrrolidin-1-yl)pyrimidine-5-carbonitrile], the IC50 was found to be 5400 nM. As for `Cc1nc(N)nc(N2CCC[C@H]2c2nc3cccc(-c4cccnc4)c3c(=O)n2-c2ccccc2)c1C#N` [Example 20, (S)-2-Amino-4-methyl-6-(2-(4-oxo-3-phenyl-5-(pyridin-3-yl)-3,4-dihydroquinazolin-2-yl)pyrrolidin-1-yl)pyrimidine-5-carbonitrile], the figure is less than 3 nM; as for `N#Cc1c(N)ncnc1N1CCC[C@H]1c1nc2cccc(C#CCO)c2c(=O)n1-c1ccccc1` [Example 33, (S)-4-Amino-6-(2-(5-(3-hydroxyprop-1-yn-1-yl)-4-oxo-3-phenyl-3,4-dihydroquinazolin-2-yl)pyrrolidin-1-yl)pyrimidine-5-carbonitrile], 14 nM. As for `COc1cncc(-c2cccc3nc([C@@H]4CCCN4c4nc(N)nc(C)c4C#N)n(-c4ccccc4)c(=O)c23)c1` [Example 18, (S)-2-Amino-4-(2-(5-(5-methoxypyridin-3-yl)-4-oxo-3-phenyl-3,4-dihydroquinazolin-2-yl)pyrrolidin-1-yl)-6-methylpyrimidine-5-carbonitrile], the figure is less than 3 nM; as for `COc1cncc(-c2cccc3nc([C@@H]4C[C@H](O)CN4c4nc(N)nc(C)c4C#N)n(-c4ccccc4)c(=O)c23)c1` [Example 25, 2-Amino-4-((2S,4S)-4-hydroxy-2-(5-(5-methoxypyridin-3-yl)-4-oxo-3-phenyl-3,4-dihydroquinazolin-2-yl)pyrrolidin-1-yl)-6-methylpyrimidine-5-carbonitrile], 4 nM; as for `COc1ncc(-c2cccc3nc([C@@H]4C[C@H](O)CN4c4nc(N)nc(C)c4C#N)n(-c4ccccc4)c(=O)c23)cn1` [Example 22, 2-Amino-4-((2S,4S)-4-hydroxy-2-(5-(2-methoxypyrimidin-5-yl)-4-oxo-3-phenyl-3,4-dihydroquinazolin-2-yl)pyrrolidin-1-yl)-6-methylpyrimidine-5-carbonitrile], 7 nM. With `Cc1nc(N)nc(N2C[C@@H](O)C[C@H]2c2nc3cccc(-c4cncnc4)c3c(=O)n2-c2ccccc2)c1C#N` [Example 26, 2-Amino-4-((2S,4S)-4-hydroxy-2-(4-oxo-3-phenyl-5-(pyrimidin-5-yl)-3,4-dihydroquinazolin-2-yl)pyrrolidin-1-yl)-6-methylpyrimidine-5-carbonitrile], the IC50 is 7 nM. `Cc1nc(N)nc(N2C[C@@H](O)C[C@H]2c2nc3cccc(-c4cnn(CCO)c4)c3c(=O)n2-c2ccccc2)c1C#N` [Example 28, 2-Amino-4-((2S,4S)-4-hydroxy-2-(5-(1-(2-hydroxyethyl)-1H-pyrazol-4-yl)-4-oxo-3-phenyl-3,4-dihydroquinazolin-2-yl)pyrrolidin-1-yl)-6-methylpyrimidine-5-carbonitrile]: the IC50 was 90 nM. As for `Cc1nc(N)nc(N2C[C@@H](O)C[C@H]2c2nc3ccc(F)c(-c4cnn(C)c4)c3c(=O)n2-c2ccccc2)c1C#N` [Example 1, 2-Amino-4-((2S,4S)-2-(6-fluoro-5-(1-methyl-1H-pyrazol-4-yl)-4-oxo-3-phenyl-3,4-dihydroquinazolin-2-yl)-4-hydroxypyrrolidin-1-yl)-6-methylpyrimidine-5-carbonitrile], the figure is 3 nM; as for `Cc1nc(N)nc(N2CCC[C@H]2c2nc3cccc(-c4cnn(C)c4)c3c(=O)n2-c2ccccc2)c1C#N` [Example 13, (S)-2-Amino-4-methyl-6-(2-(5-(1-methyl-1H-pyrazol-4-yl)-4-oxo-3-phenyl-3,4-dihydroquinazolin-2-yl)pyrrolidin-1-yl)pyrimidine-5-carbonitrile], 12 nM; as for `Cc1ncc(-c2cccc3nc([C@@H]4CCCN4c4nc(N)nc(C)c4C#N)n(-c4ccccc4)c(=O)c23)cn1` [Example 19, (S)-2-Amino-4-methyl-6-(2-(5-(2-methylpyrimidin-5-yl)-4-oxo-3-phenyl-3,4-dihydroquinazolin-2-yl)pyrrolidin-1-yl)pyrimidine-5-carbonitrile], less than 3 nM. As to `COc1ncc(-c2cccc3nc([C@@H]4CCCN4c4nc(N)nc(C)c4C#N)n(-c4ccccc4)c(=O)c23)cn1` [Example 4, (S)-2-Amino-4-(2-(5-(2-methoxypyrimidin-5-yl)-4-oxo-3-phenyl-3,4-dihydroquinazolin-2-yl)pyrrolidin-1-yl)-6-methylpyrimidine-5-carbonitrile], the IC50 is less than 3 nM.

With `Cn1cc(-c2cccc3nc([C@@H]4CCCN4c4ncnc(N)c4C#N)n(-c4ccccc4)c(=O)c23)cn1` [Example 2, (S)-4-Amino-6-(2-(5-(1-methyl-1H-pyrazol-4-yl)-4-oxo-3-phenyl-3,4-dihydroquinazolin-2-yl)pyrrolidin-1-yl)pyrimidine-5-carbonitrile], the IC50 worked out at 3 nM.

With `Cc1nc(N)nc(N2CCC[C@H]2c2nc3ccc(F)c(-c4cnn(C)c4)c3c(=O)n2-c2ccccc2)c1C#N` [Example 6, (S)-2-Amino-4-(2-(6-fluoro-5-(1-methyl-1H-pyrazol-4-yl)-4-oxo-3-phenyl-3,4-dihydroquinazolin-2-yl)pyrrolidin-1-yl)-6-methylpyrimidine-5-carbonitrile], the IC50 was found to be 5 nM.

(Values after patent US9840498B2, “Substituted quinazolin-4-one derivatives” (NOVARTIS AG, priority 2013, dated 2017).)
